Assay: Inhibition of soybean lipoxygenase assessed as formation of 13-hydroperoxylinoleic acid after 7 mins

- IC50: 12 µM
SMILES: COc1ccc2cc(C(C)C(=O)N3CCSCC3)ccc2c1 (stereo unspecified)

Reference: BindingDB's records for doi:10.1016/j.bmcl.2015.12.063 (Aristotelian University of Thessaloniki, 2016)
